One experiment has as its target T1, AURKC (Homo sapiens, UniProt Q9UQB9).
T1 construct: full-length kinase, C-terminal NanoLuc fusion, transfected HEK293 cells
Briefly: NanoBRET target engagement, Tracer K10 displacement in live HEK293 cells. In kind it is cell-based. Conditions: […] h, […] C, n = […].

The target in the next experiment is T2, EPHA4 (Homo sapiens, UniProt P54764).
T2 construct: full-length kinase, C-terminal NanoLuc fusion, transfected HEK293 cells
The experiment is described as above. In kind it is cell-based. Conditions: […] h, […] C, n = […].

The next experiment has as its target T3, EPHA6 (Homo sapiens, UniProt Q9UF33).
T3 construct: full-length kinase, C-terminal NanoLuc fusion, transfected HEK293 cells
The description is as above. In kind it is cell-based. Conditions: […] h, […] C, n = […].

The target of a further experiment is T4, EPHA1 (Homo sapiens, UniProt P21709).
T4 construct: full-length kinase, C-terminal NanoLuc fusion, transfected HEK293 cells
Described as above. The experiment is classed as cell-based. Conditions: […] h, […] C, n = […].

A further experiment addresses T5, EPHB4 (Homo sapiens, UniProt P54760).
T5 construct: full-length kinase, C-terminal NanoLuc fusion, transfected HEK293 cells
The description is as above. In kind it is cell-based. Conditions: […] h, […] C, n = […].

Another experiment concerns the target T6, EPHB1 (Homo sapiens, UniProt P54762).
T6 construct: full-length kinase, C-terminal NanoLuc fusion, transfected HEK293 cells
Described as above. In kind it is cell-based. Conditions: […] h, […] C, n = […].

The target of a further experiment is T7, EPHA7 (Homo sapiens, UniProt Q15375).
T7 construct: full-length kinase, C-terminal NanoLuc fusion, transfected HEK293 cells
The description is as above. In kind it is cell-based. Conditions: […] h, […] C, n = […].

The next experiment has as its target T8, NTRK1 (Homo sapiens, UniProt P04629).
T8 construct: full-length kinase, C-terminal NanoLuc fusion, transfected HEK293 cells
Described as above. The experiment is classed as cell-based. Conditions: […] h, […] C, n = […].

In another experiment the target is DAPK2 (Homo sapiens, UniProt Q9UIK4). As to the kind of experiment: cell-based. More on the design: NanoBRET live-cell target engagement; % occupancy from displacement of tracer K10 on NanoLuc-kinase fusions, mean n=3. Conditions: HEK293, read-out: % inhibition. An outline of the steps: (§1)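 Live-cell NanoBRET target engagement: cells expressing kinase–NanoLuc fusion with tracer treated with compound 2 h at 37 °C, 5% CO2. BRET read from donor (450 nm) and acceptor (610/630 nm) emission with 20 μM extracellular NanoLuc inhibitor; % occupancy calculated relative to tracer+DMSO and zero-BRET controls.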

The target in the next experiment is LCK (Homo sapiens, UniProt P06239). Briefly: cell-based. Conditions: HEK293, read-out: % inhibition. More on the design: NanoBRET live-cell target engagement; % occupancy from displacement of tracer K10 on NanoLuc-kinase fusions, mean n=3. In a few lines: as §1
A further experiment has as its target MAP3K12 (Homo sapiens, UniProt Q12852). As to the kind of experiment: cell-based. Conditions: HEK293, read-out: % inhibition. Further details: NanoBRET live-cell target engagement; % occupancy from displacement of tracer K10 on NanoLuc-kinase fusions, mean n=3. An outline of the steps:
as §1

A further experiment addresses MAP3K19 (Homo sapiens, UniProt Q56UN5). As to the kind of experiment: cell-based. More on the design: NanoBRET live-cell target engagement; % occupancy from displacement of tracer K10 on NanoLuc-kinase fusions, mean n=3. Conditions: HEK293, read-out: % inhibition. An outline of the steps:
as §1

Another experiment addresses PAK4 (Homo sapiens, UniProt O96013). As to the kind of experiment: cell-based. Further details: NanoBRET live-cell target engagement; % occupancy from displacement of tracer K10 on NanoLuc-kinase fusions, mean n=3. Conditions: HEK293, read-out: % inhibition. In a few lines: as §1
Another experiment concerns the target PKMYT1 (Homo sapiens, UniProt Q99640). As to the kind of experiment: cell-based. Conditions: HEK293, read-out: % inhibition. Further details: NanoBRET live-cell target engagement; % occupancy from displacement of tracer K10 on NanoLuc-kinase fusions, mean n=3. In a few lines:
as §1

The target of a further experiment is PTK6 (Homo sapiens, UniProt Q13882). Briefly: cell-based. More on the design: NanoBRET live-cell target engagement; % occupancy from displacement of tracer K10 on NanoLuc-kinase fusions, mean n=3. Conditions: HEK293, read-out: % inhibition. In a few lines:
as §1

In the next experiment the target is ULK2 (Homo sapiens, UniProt Q8IYT8). Briefly: cell-based. Conditions: HEK293, read-out: % inhibition. Further details: NanoBRET live-cell target engagement; % occupancy from displacement of tracer K10 on NanoLuc-kinase fusions, mean n=3. In a few lines:
as §1

The next experiment concerns the target LTK (Homo sapiens, UniProt P29376). As to the kind of experiment: cell-based. More on the design: species or system HEK293; NanoBRET live-cell target engagement; % occupancy from displacement of tracer K10 on NanoLuc-kinase fusions, mean n=3. Conditions: D=C; E=100; % occupancy, tracer K10 displacement; 1 µM; binder. The method, then:
(§2) • 18. Prepare 10× test compounds in OptiMEM • a. Dilute the test compound to 1000× in DMSO (or the test compound solvent). […] Add 10μL per well of 10× test compound or 10μL of the DMSO control to the 96-well plates containing cells with 1× tracer. Mix on orbital shaker for 15 s at 900 rpm. • 20. Incubate the plate at 37°C + 5% CO2 incubator for 2hr. Allow plate to cool to RT for ∼15 min, then proceed to NanoBRET^TM Assay section below. • 21. Immediately before the BRET measurements, prepare 3× Complete NanoBRET^TM Nano-Glo® Substrate in OptiMEM without serum or phenol red. […] Mix gently by inverting 5–10 times in a conical tube. (The final concentration of Extracellular NanoLuc inhibitor in the 3× solution is 60 μM, for a working concentration of 20 μM.) • a. Note: 3× solutions should be used within 1.5 h after preparation. • 22. […] Incubate 2–3 min at RT. Following addition of NanoBRET^TM Nano-Glo® Substrate, measure donor emission (e.g., 450 nm) and acceptor emission (e.g., 610 nm or 630 nm) using a NanoBRET™-compatible luminometer. Fractional occupancy Quantitation • 2. Determine Fractional Occupancy with the following equation; % Occupancy = [1 – (X – Z)/( Y – Z)]∗100 • Where: • X = BRET in the presence of the test compound and tracer, • Y = BRET in the presence of the 100% BRET Control (Tracer + DMSO) • Z = BRET for the Zero BRET Control, e.g., • a. […]

The next experiment addresses STK33 (Homo sapiens, UniProt Q9BYT3). As to the kind of experiment: cell-based. More on the design: species or system HEK293; NanoBRET live-cell target engagement; % occupancy from displacement of tracer K10 on NanoLuc-kinase fusions, mean n=3. Conditions: HEK293; D=N; E=250; % occupancy, tracer K10 displacement. How it is done: as §2

Chain of ULK2 (Q8IYT8 whole entry, the tested form may be a part): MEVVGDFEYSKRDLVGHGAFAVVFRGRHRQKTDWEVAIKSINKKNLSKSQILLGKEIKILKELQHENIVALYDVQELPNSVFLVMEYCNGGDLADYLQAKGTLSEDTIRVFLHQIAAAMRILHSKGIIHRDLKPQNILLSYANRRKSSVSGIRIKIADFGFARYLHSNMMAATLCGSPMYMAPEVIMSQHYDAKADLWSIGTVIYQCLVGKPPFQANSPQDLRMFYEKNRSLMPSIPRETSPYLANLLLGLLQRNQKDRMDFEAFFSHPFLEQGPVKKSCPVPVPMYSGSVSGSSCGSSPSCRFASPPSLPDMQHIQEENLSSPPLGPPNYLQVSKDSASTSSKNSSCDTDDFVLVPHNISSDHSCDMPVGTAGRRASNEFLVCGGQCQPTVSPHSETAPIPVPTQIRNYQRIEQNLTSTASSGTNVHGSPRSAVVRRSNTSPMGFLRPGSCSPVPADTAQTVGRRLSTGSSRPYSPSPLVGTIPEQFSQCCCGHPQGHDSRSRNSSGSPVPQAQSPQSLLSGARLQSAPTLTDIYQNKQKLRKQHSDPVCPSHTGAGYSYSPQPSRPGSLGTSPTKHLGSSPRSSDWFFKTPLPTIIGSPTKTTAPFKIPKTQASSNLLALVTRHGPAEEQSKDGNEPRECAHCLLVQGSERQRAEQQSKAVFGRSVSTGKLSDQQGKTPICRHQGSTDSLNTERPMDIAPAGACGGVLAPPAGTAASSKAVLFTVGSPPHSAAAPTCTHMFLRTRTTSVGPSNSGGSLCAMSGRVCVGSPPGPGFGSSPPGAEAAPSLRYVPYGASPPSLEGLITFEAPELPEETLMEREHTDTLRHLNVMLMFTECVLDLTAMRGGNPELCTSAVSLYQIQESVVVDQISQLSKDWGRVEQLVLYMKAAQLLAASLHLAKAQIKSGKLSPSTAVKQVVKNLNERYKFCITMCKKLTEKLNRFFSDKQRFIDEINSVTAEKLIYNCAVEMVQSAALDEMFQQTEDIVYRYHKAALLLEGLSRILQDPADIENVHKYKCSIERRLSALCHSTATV
Chain of LTK (P29376 whole entry, the tested form may be a part): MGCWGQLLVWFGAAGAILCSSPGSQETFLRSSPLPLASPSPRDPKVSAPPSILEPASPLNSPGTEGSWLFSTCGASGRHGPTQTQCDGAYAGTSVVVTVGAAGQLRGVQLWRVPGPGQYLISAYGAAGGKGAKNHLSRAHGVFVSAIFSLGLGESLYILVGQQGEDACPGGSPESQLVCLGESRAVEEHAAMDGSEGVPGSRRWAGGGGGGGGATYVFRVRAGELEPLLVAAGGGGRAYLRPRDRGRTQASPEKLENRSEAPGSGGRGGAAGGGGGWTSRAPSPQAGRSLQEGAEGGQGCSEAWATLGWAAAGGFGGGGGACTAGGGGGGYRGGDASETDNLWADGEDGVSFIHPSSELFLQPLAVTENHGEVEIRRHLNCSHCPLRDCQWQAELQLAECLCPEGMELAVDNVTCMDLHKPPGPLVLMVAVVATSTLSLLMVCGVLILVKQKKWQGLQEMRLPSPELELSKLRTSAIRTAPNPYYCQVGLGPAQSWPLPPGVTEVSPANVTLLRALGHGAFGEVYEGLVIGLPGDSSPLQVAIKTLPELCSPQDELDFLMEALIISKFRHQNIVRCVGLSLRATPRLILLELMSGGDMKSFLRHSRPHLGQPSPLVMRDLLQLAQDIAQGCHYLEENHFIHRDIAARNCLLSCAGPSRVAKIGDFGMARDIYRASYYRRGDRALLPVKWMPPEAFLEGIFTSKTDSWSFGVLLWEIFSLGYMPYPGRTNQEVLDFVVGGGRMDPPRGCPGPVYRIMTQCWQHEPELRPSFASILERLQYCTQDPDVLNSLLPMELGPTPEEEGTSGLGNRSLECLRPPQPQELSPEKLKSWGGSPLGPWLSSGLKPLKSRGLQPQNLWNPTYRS
T8 sequence (P04629 33-796): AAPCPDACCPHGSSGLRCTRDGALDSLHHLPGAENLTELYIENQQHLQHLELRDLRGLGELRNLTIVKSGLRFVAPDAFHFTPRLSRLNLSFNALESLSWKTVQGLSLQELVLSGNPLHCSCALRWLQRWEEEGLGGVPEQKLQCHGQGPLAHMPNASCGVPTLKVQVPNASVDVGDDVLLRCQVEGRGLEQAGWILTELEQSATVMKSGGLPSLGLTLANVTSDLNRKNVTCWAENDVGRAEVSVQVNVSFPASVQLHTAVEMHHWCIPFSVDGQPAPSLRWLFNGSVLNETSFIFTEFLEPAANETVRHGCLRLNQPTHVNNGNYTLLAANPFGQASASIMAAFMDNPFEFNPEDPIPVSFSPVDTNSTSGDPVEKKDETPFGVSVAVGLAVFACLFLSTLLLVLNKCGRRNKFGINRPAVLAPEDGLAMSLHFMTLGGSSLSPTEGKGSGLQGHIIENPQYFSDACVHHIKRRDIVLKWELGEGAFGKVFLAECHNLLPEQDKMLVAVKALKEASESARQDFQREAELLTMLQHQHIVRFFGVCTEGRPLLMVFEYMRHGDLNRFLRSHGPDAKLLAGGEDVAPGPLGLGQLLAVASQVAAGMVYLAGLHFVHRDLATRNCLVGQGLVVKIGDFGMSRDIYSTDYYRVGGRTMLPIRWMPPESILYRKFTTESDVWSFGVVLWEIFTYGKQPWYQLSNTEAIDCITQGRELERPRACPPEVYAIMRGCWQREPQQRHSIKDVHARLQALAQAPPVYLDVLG
Chain of MAP3K19 (Q56UN5 whole entry, the tested form may be a part): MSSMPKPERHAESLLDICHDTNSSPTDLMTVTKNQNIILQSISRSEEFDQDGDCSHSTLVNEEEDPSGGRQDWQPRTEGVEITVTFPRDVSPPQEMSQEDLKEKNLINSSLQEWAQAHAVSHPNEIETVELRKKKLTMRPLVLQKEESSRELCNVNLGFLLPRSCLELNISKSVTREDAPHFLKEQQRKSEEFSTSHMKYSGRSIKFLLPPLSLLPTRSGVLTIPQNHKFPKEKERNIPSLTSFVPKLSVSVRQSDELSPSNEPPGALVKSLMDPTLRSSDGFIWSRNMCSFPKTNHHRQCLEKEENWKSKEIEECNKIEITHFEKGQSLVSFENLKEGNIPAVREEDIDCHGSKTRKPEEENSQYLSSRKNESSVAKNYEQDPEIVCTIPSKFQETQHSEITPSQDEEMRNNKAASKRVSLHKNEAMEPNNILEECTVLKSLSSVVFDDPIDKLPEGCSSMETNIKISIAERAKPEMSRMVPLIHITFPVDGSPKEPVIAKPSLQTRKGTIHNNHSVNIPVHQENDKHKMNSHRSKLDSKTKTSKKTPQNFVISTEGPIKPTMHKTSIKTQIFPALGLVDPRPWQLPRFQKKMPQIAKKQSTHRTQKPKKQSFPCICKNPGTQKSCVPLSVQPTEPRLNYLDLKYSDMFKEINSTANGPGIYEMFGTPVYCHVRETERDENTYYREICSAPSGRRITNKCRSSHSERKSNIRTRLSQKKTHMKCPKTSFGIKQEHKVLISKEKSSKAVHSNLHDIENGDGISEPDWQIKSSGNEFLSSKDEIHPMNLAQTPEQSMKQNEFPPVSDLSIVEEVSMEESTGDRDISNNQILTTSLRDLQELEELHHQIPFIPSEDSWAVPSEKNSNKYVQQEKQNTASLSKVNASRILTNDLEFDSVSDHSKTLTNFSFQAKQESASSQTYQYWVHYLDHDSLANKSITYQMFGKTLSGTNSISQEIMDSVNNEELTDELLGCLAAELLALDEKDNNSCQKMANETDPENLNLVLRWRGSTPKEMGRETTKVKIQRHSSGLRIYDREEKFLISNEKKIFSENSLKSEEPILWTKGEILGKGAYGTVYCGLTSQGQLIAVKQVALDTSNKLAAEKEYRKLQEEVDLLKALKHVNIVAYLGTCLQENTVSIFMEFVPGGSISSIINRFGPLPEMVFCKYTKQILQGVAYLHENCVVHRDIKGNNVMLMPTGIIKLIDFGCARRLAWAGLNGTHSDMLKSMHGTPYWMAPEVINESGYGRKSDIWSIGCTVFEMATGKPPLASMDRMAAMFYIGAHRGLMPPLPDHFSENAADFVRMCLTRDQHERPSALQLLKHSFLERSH
T5 sequence (P54760 16-987): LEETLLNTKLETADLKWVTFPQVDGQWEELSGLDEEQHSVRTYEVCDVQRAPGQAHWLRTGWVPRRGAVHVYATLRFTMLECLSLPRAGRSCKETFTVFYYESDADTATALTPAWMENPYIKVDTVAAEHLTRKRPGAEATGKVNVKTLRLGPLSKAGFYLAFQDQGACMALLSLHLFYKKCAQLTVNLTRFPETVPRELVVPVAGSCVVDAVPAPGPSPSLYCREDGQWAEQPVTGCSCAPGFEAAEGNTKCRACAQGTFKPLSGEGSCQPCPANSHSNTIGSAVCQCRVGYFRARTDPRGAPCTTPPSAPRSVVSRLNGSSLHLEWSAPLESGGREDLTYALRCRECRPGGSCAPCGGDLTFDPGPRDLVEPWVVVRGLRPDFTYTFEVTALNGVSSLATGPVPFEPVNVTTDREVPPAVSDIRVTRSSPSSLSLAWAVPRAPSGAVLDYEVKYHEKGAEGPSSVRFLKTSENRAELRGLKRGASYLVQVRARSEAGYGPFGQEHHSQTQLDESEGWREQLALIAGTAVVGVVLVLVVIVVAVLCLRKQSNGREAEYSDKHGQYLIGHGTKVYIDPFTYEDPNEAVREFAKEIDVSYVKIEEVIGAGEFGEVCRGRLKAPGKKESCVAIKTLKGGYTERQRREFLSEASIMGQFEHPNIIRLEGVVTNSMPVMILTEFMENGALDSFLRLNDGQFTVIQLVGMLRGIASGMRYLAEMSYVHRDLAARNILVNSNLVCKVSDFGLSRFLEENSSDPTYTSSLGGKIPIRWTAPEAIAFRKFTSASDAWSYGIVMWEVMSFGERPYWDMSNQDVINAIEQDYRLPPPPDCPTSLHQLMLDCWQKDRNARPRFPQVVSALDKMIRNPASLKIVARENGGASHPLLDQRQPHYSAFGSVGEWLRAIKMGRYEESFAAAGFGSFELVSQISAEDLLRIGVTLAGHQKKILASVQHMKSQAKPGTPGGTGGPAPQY
Description for AURKC: NanoBRET target engagement, Tracer K10 displacement in live HEK293 cells on AURKC
Description for EPHA1: NanoBRET target engagement, Tracer K10 displacement in live HEK293 cells on EPHA1
Description for EPHA4: NanoBRET target engagement, Tracer K10 displacement in live HEK293 cells on EPHA4
Description for EPHA6: NanoBRET target engagement, Tracer K10 displacement in live HEK293 cells on EPHA6
Description for EPHA7: NanoBRET target engagement, Tracer K10 displacement in live HEK293 cells on EPHA7
Description for EPHB1: NanoBRET target engagement, Tracer K10 displacement in live HEK293 cells on EPHB1
Description for EPHB4: NanoBRET target engagement, Tracer K10 displacement in live HEK293 cells on EPHB4
Description for NTRK1: NanoBRET target engagement, Tracer K10 displacement in live HEK293 cells on NTRK1

Turning to `C[C@@H](Oc1cc(-c2cnn(C3CCNCC3)c2)cnc1N)c1c(Cl)ccc(F)c1Cl` [crizotinib], the “Crizotinib % occupancy, 1 uM” value on AURKC was found to be 48 ± 4.2%; on EPHA4, 53 ± 4.4%; on EPHA6, 64 ± 5.1%; on EPHA1 it was 75 ± 2.2%; at EPHB4 it was 62 ± 3.6%; at EPHB1 it was 68 ± 2.0%. The “Crizotinib % occupancy, 1 uM” value at EPHA7 turned out to be 38 ± 2.4%; on NTRK1, 71 ± 2.5%. For the same molecule, the inhibition at 1 µM was determined as 3% at DAPK2; 36% on LCK; 12% on MAP3K12; 6% at MAP3K19; 1% at PAK4; 6% on PKMYT1. The values for the inhibition at 1 µM at PTK6, at ULK2 and on STK33 were -2%, -1% and -3%, respectively. Moreover, the “% inhibition” value at LTK came to 87%.

The values above are taken from PMC8449129, “Single tracer-based protocol for broad-spectrum kinase profiling in live cells with NanoBRET” (STAR Protocols, 2021).
